Measured values: patent US8697380B2, “Method for detecting compounds modulating dimers of VFT domain membrane proteins” (CIS Bio International, priority 2009, dated 2014)

Biological target: mGluR2-mGluR2 dimer (Rattus norvegicus, UniProt P31421)
Settings: for change in TRF520 signal in the presence of the compound: delay 50 μs, integration time 450 μs, BG-Lumi4-Tb/BC-fluorescein, dose-dependent; for maximum variation of TRF520 signal: dose-response up to 100 μM DCG-IV / 316 μM glutamate

Chain of mGluR2-mGluR2 dimer (P31421 23-872): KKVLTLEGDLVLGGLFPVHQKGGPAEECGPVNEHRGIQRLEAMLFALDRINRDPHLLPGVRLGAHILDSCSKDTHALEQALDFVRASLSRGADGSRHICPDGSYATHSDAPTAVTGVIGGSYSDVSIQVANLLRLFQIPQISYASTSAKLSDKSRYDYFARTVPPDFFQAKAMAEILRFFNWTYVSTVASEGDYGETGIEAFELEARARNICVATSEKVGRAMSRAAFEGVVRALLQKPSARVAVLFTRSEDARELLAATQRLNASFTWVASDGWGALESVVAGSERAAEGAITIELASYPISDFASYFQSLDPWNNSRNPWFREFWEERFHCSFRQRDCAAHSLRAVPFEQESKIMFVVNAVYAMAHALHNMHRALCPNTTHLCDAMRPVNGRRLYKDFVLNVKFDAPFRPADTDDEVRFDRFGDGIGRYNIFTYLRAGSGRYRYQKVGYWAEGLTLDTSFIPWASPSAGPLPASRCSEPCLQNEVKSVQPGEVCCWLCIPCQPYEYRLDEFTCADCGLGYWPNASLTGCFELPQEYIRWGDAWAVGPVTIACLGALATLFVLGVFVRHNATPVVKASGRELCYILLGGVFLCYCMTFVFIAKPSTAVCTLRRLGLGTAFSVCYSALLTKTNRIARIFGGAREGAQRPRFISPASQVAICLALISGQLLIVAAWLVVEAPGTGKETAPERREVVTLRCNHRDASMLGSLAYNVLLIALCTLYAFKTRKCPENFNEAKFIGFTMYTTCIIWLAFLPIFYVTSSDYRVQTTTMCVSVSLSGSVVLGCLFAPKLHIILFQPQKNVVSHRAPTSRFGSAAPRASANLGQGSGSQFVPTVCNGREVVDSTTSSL
Chain of mGluR2-mGluR2 dimer (P31421 23-872): as above

Compound	TRF520 signal for a given glutamate concentration, in the presence versus absence of the modulator (4-MPPTS 10 μM, glutamate 1-1000 μM)	change in TRF520 signal in the presence of the compound	maximum variation of TRF520 signal [%]	EC50 (read-out: concentration necessary for obtaining a variation equal to half the maximum variation (close to the pharmacological EC50), TRF520 signal, printed value is given as the pharmacological EC50) [nM]	variation in TRF520 (glutamate 100 μM, in the absence of the antagonist LY341495) [%]
COc1ccccc1Oc1ccc(N(Cc2cccnc2)S(=O)(=O)CC(F)(F)F)cc1 [4-MPPTS]	greater decrease in signal	–	–	–	–
N[C@H](C(=O)O)C1[C@@H](C(=O)O)[C@@H]1C(=O)O (stereo partly shown) [DCG-IV]	–	inhibiting the TRF520 signal in a dose-dependent manner	30	~400	–
N[C@@H](CCC(=O)O)C(=O)O [glutamate, L-glutamic acid]	–	decrease in TRF520	50	–	50
